The values below come from patent US20260014147A1, “STAT6 DEGRADERS” (Gilead Sciences, Inc., priority 2024, published 2026).

The target in assay [1] is T1, human STAT6 (truncated, aa122-658, with N-terminal His-tag) (Homo sapiens, UniProt P42226).
T1 construct: Human STAT6 (truncated, aa122-658, with N-terminal His-tag, expressed in insect cells); His-tag (N); made in house; host or cells: insect cells
T1 sequence (P42226 122-658): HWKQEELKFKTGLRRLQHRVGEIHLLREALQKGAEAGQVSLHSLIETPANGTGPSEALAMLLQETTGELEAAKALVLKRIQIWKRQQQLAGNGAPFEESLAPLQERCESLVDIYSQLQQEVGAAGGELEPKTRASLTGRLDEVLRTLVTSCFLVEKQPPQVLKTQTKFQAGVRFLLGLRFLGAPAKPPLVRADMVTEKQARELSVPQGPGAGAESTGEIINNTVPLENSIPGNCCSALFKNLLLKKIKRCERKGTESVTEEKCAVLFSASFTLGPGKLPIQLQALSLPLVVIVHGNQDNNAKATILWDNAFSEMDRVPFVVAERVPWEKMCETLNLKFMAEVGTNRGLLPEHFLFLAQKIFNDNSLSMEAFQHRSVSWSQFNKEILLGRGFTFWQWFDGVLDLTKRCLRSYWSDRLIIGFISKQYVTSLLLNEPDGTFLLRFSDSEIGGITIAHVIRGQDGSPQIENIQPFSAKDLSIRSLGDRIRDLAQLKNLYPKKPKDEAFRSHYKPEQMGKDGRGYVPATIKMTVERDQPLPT
The assay can be described thus: Surface Plasmon Resonance (SPR) assay: binding of compounds to immobilized human STAT6. As to conditions: immobilized human STAT6 (aa122-658), 25° C.; geometric mean. Here is the method:
SPR was used to confirm and quantify binding of compounds to human STAT6. Biacore instruments from the 8K-series (Cytiva) were used, and measurements were performed at 25° C. Human STAT6 (truncated, aa122-658, with N-terminal His-tag, expressed in insect cells) was immobilized in the active flow cells on a CM5 chip using amine-coupling (default settings) at 10 μg/ml in 10 mM acetate buffer pH 5.5, at a contact time of 120-420 sec. and a flow rate of […]. Reference flow cells were deactivated using blank immobilization. PBS-P+ (Cytiva) supplemented with 2% DMSO was used as running buffer, and solvent correction was applied. Compounds were tested by multi-cycle kinetics injections using a contact time of 60 sec., dissociation time of up to 300 sec., and a flow rate of […].
Solvent-corrected, reference-subtracted and blank-corrected data was processed and binding isotherms were fitted according to a single report point from each sensorgram (Standard: Late binding (5 sec. before injection end); alternative: Earlier report point according to binding profile). Data fitting was done both with unfixed Rmax and with Rmax fixed to the theoretical value* assuming 1:1 binding to allow processing of data from both weak and strong binders as well as to evaluate binding stoichiometry.
Positive controls were run at the beginning, during, and at the end of the screen to evaluate surface activity. Generally surface activity was only affected to a minor degree, and no corrections were applied.
*Equation for calculation of the theoretical Rmax (Theoretical Rmax=(MW Analyte/MW Ligand) x immobilization level).
The sensorgrams for Examples 2a1, 2t1, 2m1, and 2a2 are shown below (where RU is plotted vs. time in seconds; dotted lines/points were excluded from the analysis due to effects from non-specific binding).

Assay [2] addresses T2, STAT6 (endogenous, HiBiT-tagged) in HeLa LgBiT clone 4.14 cells (Homo sapiens, UniProt P42226).
T2 construct: These cells express endogenous STAT6; host or cells: HeLa LgBiT clone 4.14
T2 sequence (P42226 1-847): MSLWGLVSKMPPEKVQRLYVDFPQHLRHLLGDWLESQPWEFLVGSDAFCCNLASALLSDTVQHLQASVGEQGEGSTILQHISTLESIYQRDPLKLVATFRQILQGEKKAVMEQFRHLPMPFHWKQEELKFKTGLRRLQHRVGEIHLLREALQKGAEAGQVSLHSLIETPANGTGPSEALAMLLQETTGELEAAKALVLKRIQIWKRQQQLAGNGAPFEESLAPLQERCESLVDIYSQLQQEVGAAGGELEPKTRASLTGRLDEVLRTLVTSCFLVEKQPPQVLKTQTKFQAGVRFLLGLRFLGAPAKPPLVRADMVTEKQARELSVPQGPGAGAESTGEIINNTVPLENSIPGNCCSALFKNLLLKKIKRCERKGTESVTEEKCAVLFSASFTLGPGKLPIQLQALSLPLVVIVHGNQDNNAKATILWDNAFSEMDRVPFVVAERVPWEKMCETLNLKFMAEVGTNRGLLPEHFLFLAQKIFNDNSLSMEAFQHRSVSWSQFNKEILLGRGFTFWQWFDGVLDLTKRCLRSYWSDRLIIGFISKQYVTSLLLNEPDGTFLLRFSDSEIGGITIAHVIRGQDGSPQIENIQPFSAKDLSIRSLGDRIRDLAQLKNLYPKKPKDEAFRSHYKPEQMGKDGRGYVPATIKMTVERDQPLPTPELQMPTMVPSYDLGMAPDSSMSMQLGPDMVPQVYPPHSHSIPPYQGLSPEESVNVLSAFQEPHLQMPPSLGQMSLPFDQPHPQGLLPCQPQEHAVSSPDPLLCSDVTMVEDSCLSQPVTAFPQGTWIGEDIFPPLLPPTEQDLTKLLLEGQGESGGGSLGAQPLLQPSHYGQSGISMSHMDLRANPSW
The assay can be described thus: STAT6 Degrader Assay (HiBiT based, HeLa LgBiT clone 4.14 cells, luminescence, DC50). It is filed as cell-based. As to conditions: geometric mean; for DC50: DC50 provided for test compounds with >80% Emax, read-out: STAT6 degradation DC50; for Emax: Emax provided for test compounds with <80% Emax (and 2c15), read-out: STAT6 degradation Emax. Summed up:
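Remaining STAT6 is read as NanoBiT luminescence after 0.5 h with Nano-Glo, in HeLa LgBiT clone 4.14 cells expressing endogenous HiBiT-tagged STAT6, following 4-24 h compound incubation at 37 °C. Full degradation is set by 50 µM terfenadine, which kills the cells; degradation plotted against log compound concentration.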
A general note: With HiBiT, luminescence reflects the tagged protein that the partner subunit can reach.

Assay [3] has as its system Eotaxin-3 (CCL26) release in human whole blood stimulated with IL-4. As to the kind of experiment: Human Whole Blood Eotaxin-3 Assay (IL-4 stimulated, inhibition of eotaxin-3 release). It is filed as cell-based. As to conditions: Homo sapiens, EC50 provided for test compounds with >80% Emax, geometric mean across assay runs and batches. Summed up: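 Lithium-heparin human whole blood preincubated 2 h at 37 °C with compounds (4-fold serial dilution, triplicate, 0.5% DMSO final), then stimulated with 400 pM IL-4 for 48 h. Eotaxin-3 (CCL26) in supernatant quantified by MSD immunoassay.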

Molecules are shown by their SMILES. A value given as a limit tells only on which side of the number the result lay.

Turning to `Cn1c(CN2CCC(c3ccc(C(=O)N4CCN(C(=O)CN5CCC(c6ccc(NC7CCC(=O)NC7=O)cc6F)CC5)CC4)cc3)CC2)cc2c(-c3ccc4[nH]ncc4c3)ccnc21` (centres unmarked) [Example 2a1, 3-((4-(1-(2-(4-(4-(1-((4-(1H-indazol-5-yl)-1-methyl-1H-pyrrolo[2,3-b]pyridin-2-yl)methyl)-piperidin-4-yl)benzoyl)piperazin-1-yl)-2-oxoethyl)piperidin-4-yl)-3-fluorophenyl)amino)piperidine-2,6-dione], in assay [1], the Kd was determined as 224 nM. In addition, the DC50 in assay [2] was found to be 4.9 nM.

`Cn1c(CN2CCC(c3ccc(C(=O)N4CCN(C(=O)CN5CCN(c6ccc(NC7CCC(=O)NC7=O)cc6F)CC5)CC4)cc3)CC2)cc2c(-c3ccc4[nH]ncc4c3)ccnc21` (centres unmarked) [Example 2a2, 3-((4-(4-(2-(4-(4-(1-((4-(1H-indazol-5-yl)-1-methyl-1H-pyrrolo[2,3-b]pyridin-2-yl)methyl)-piperidin-4-yl)benzoyl)piperazin-1-yl)-2-oxoethyl)piperazin-1-yl)-3-fluorophenyl)amino)piperidine-2,6-dione] showed a Kd in assay [1] of 61.2 nM. Moreover, the Emax in assay [2] fell in the range of 60 to 70%.

`Cn1c(CN2CCC(c3ccc(C(=O)N4CCC(CN5CCN(c6ccc(NC7CCC(=O)NC7=O)cc6F)CC5)CC4)cc3)CC2)cc2c(-c3cnc(N)c(F)c3)ccnc21` (centres unmarked) [Example 2c3, 3-((4-(4-((1-(4-(1-((4-(6-amino-5-fluoropyridin-3-yl)-1-methyl-1H-pyrrolo[2,3-b]pyridin-2-yl)-methyl)piperidin-4-yl)benzoyl)piperidin-4-yl)methyl)piperazin-1-yl)-3-fluorophenyl)amino)piperidine-2,6-dione]: the Kd in assay [1] was < 20 nM. In addition, the maximum response (Emax) in assay [2] is < 20%.

`Cn1c(CN2CCC(c3ccc(C(=O)N4CCC(CN5CCN(c6ccc(NC7CCC(=O)NC7=O)cc6F)CC5)CC4)cc3)CC2)cc2c(-c3ccc(N)nc3C#N)ccnc21` (centres unmarked) [Example 2c8, 6-amino-3-(2-((4-(4-(4-((4-(4-((2,6-dioxopiperidin-3-yl)amino)-2-fluorophenyl)piperazin-1-yl)-methyl)piperidine-1-carbonyl)phenyl)piperidin-1-yl)methyl)-1-methyl-1H-pyrrolo[2,3-b]pyridin-4-yl)-picolinonitrile] displayed a Kd in assay [1] of 40 to 50 nM. The Emax in assay [2] was < 20%.

On to `Cn1c(CN2CCC(c3ccc(C(=O)N4CCC(CN5CCN(C(=O)c6ccc(NC7CCC(=O)NC7=O)cc6F)CC5)CC4)cc3)CC2)cc2c(-c3ccc4[nH]ncc4c3)ccnc21` (centres unmarked) [Example 2e1, 3-((4-(4-((1-(4-(1-((4-(1H-indazol-5-yl)-1-methyl-1H-pyrrolo[2,3-b]pyridin-2-yl)methyl)-piperidin-4-yl)benzoyl)piperidin-4-yl)methyl)piperazine-1-carbonyl)-3-fluorophenyl)amino)piperidine-2,6-dione], for which the Kd in assay [1] is < 20 nM. Also, in assay [2], the Emax is < 20%.

On to `Cn1c(CN2CCC(c3ccc(C(=O)N4CCC(CN5CCC(c6ccc(NC7CCC(=O)NC7=O)cc6F)CC5)CC4)cc3)CC2)cc2c(-c3ccc4[nH]ncc4c3)ccnc21` (centres unmarked) [Example 2m1, 3-((4-(1-((1-(4-(1-((4-(1H-indazol-5-yl)-1-methyl-1H-pyrrolo[2,3-b]pyridin-2-yl)methyl)-piperidin-4-yl)benzoyl)piperidin-4-yl)methyl)piperidin-4-yl)-3-fluorophenyl)amino)piperidine-2,6-dione], for which the Kd in assay [1] was determined as 466 nM. In addition, the Emax in assay [2] was 60 to 70%.

`COCc1nc2cc(-c3ccnc4c3cc(CN3CCC(c5ccc(C(=O)N6CCn7nc(CN8CCC(c9ccc(NC%10CCC(=O)NC%10=O)cc9F)CC8)cc7C6)cc5)CC3)n4C)ccc2[nH]1` (centres unmarked) [Example 2q7, 3-((3-fluoro-4-(1-((5-(4-(1-((4-(2-(methoxymethyl)-1H-benzo[d]imidazol-5-yl)-1-methyl-1H-pyrrolo[2,3-b]pyridin-2-yl)methyl)piperidin-4-yl)benzoyl)-4,5,6,7-tetrahydropyrazolo[1,5-a]pyrazin-2-yl)-methyl)piperidin-4-yl)phenyl)amino)piperidine-2,6-dione] returned an EC50 in assay [3] of 2.4 nM. Also, the DC50 in assay [2] amounted to 2.6 nM.

For the compound `C[C@@H](c1cc2c(-c3ccc(N)nc3)ccnc2n1C)N1CCC(c2ccc(C(=O)N3CCn4nc(CN5CCC(c6ccc(NC7CCC(=O)NC7=O)cc6F)C(F)(F)C5)cc4C3)cc2)CC1` (stereo partly drawn) [Example 2q9, 3-((4-(1-((5-(4-(1-((S)-1-(4-(6-aminopyridin-3-yl)-1-methyl-1H-pyrrolo[2,3-b]pyridin-2-yl)-ethyl)piperidin-4-yl)benzoyl)-4,5,6,7-tetrahydropyrazolo[1,5-a]pyrazin-2-yl)methyl)-3,3-difluoro-piperidin-4-yl)-3-fluorophenyl)amino)piperidine-2,6-dione], it took 26.7 nM to reach a half-maximal effect in assay [3] (EC50). Moreover, in assay [2], the half-maximal degradation concentration (DC50) turned out to be 2.9 nM.

Consider `C[C@@H](c1cc2c(-c3ccc(N)nc3)ccnc2n1C)N1CCC(c2ccc(C(=O)N3CCn4nc(CN5CCN(c6ncc(NC7CCC(=O)NC7=O)cc6F)CC5)cc4C3)cc2)CC1` (stereo partly drawn) [Example 2q14, 3-((6-(4-((5-(4-(1-((S)-1-(4-(6-aminopyridin-3-yl)-1-methyl-1H-pyrrolo[2,3-b]pyridin-2-yl)ethyl)-piperidin-4-yl)benzoyl)-4,5,6,7-tetrahydropyrazolo[1,5-a]pyrazin-2-yl)methyl)piperazin-1-yl)-5-fluoropyridin-3-yl)amino)piperidine-2,6-dione], for which the EC50 in assay [3] amounted to 86.7 nM. Besides, in assay [2], the DC50 is 24.7 nM.

Turning to `COCc1nc2cc(-c3ccnc4c3cc([C@H](C)N3CCC(c5ccc(C(=O)N6CCC(CN7CCN(c8ncc(NC9CCC(=O)NC9=O)cc8F)C[C@H]7C)CC6)cc5)CC3)n4C)ccc2[nH]1` (some centres unmarked) [Example 3t5], the response in assay [3] was half-maximal at 59.5 nM (EC50). In assay [2], the DC50 amounted to 6 nM.

The term Kd denotes the equilibrium constant for the complex coming apart. The low end stands for tighter binding, the high end for weaker binding. A word on the DC50: it is the concentration giving 50% degradation. What is called Emax is the size of the effect at its maximum, as opposed to the concentration needed. As usually defined, the EC50 is the concentration that produces a half-maximal response. A higher EC50 goes with a less potent agent.
